Reference: US12091411B2, “IRAK degraders and uses thereof” (Kymera Therapeutics, Inc., priority 2022, dated 2024)
Where two headings read alike, the source gives them in different places.

Target: T1, IRAK4 (Homo sapiens, UniProt Q9NWZ3)
T1 construct: Degradation of IRAK4 in OCI-LY10 was quantitatively measured using Meso Scale Discovery technology; endogenous in cells; host or cells: OCI-LY10
T1 sequence (Q9NWZ3 1-460): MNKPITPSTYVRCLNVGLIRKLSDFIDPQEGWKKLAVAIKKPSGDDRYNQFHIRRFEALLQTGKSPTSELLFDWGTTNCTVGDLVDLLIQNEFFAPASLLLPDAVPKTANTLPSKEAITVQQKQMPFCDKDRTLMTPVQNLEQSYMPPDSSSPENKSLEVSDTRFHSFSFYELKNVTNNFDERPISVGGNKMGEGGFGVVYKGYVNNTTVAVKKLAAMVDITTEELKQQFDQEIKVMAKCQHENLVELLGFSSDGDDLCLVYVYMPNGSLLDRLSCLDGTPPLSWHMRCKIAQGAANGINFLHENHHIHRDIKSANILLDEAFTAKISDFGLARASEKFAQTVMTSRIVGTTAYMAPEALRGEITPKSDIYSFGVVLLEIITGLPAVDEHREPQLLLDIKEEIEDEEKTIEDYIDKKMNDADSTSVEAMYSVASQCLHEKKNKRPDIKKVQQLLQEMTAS
Test: IRAK4 MSD Degradation in OCI-LY10
Type: cell-based
Settings: OCI-LY10 cells, MSD
Method in brief: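 DC50, from a three-parameter logistic fit and reported as letter bins A (<0.01 μM), B, C, D (>0.2 μM or not tested), reflects IRAK4 loss measured by MSD electrochemiluminescence in OCI-LY10 lysates. Treatment: 8 doses, 1:3 steps, top 1 to 10 μM, 4 to 24 h, 37 °C.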

[1] = 4 hrs incubation, read-out: IRAK4 degradation in OCI-LY10 at 4 hrs: DC50
[2] = 24 hrs incubation, read-out: IRAK4 degradation in OCI-LY10 at 24 hrs: DC50

Row | Compound | DC50 [1] | DC50 [2]
1 | Cn1c(=O)n(C2CCC(=O)NC2=O)c2cccc(C3CCN(C[C@H]4CC[C@H](n5cc6cc(NC(=O)c7cccc(C(F)(F)F)n7)c(C(F)F)cc6n5)CC4)CC3F)c21 (stereo partly drawn) [I-545] | > 200 nM | < 10 nM
2 | COc1ccc2c(c1C1CCN(C[C@H]3CC[C@H](n4cc5cc(NC(=O)c6cccc(C(F)(F)F)n6)ncc5n4)CC3)CC1F)n(C)c(=O)n2C1CCC(=O)NC1=O (stereo partly drawn) [I-546] | > 200 nM | > 200 nM
3 | Cc1cc2nn([C@H]3CC[C@H](CN4CCC(c5cccc6c5n(C)c(=O)n6C5CCC(=O)NC5=O)C(F)C4)CC3)cc2cc1NC(=O)c1cccc(C(F)(F)F)n1 (stereo partly drawn) [I-550] | > 200 nM | < 10 nM
4 | COc1ccc2c(c1C1CCN(C[C@H]3CC[C@H](n4cc5cc(NC(=O)c6cccc(C(F)(F)F)n6)ccc5n4)CC3)CC1F)n(C)c(=O)n2C1CCC(=O)NC1=O (stereo partly drawn) [I-551] | > 200 nM | > 200 nM
5 | Cn1c(=O)n(C2CCC(=O)NC2=O)c2cccc(C3CCN(C[C@H]4CC[C@H](n5cc6cc(NC(=O)c7cccc(C(F)(F)F)n7)c(Cl)cc6n5)CC4)CC3F)c21 (stereo partly drawn) [I-552] | > 200 nM | 10 to 100 nM
6 | Cn1c(=O)n(C2CCC(=O)NC2=O)c2cccc(C3CCN(C[C@H]4CC[C@H](n5cc6cc(NC(=O)c7cccc(C(F)(F)F)n7)ccc6n5)CC4)CC3F)c21 (stereo partly drawn) [I-553] | > 200 nM | < 10 nM
7 | Cn1c(=O)n(C2CCC(=O)NC2=O)c2cccc(C3CCN(C[C@H]4CC[C@H](n5cc6cc(NC(=O)c7cccc(C(F)(F)F)n7)c(F)cc6n5)CC4)CC3F)c21 (stereo partly drawn) [I-554] | > 200 nM | 10 to 100 nM
8 | CN(C[C@H]1CC[C@H](n2cc3cc(NC(=O)c4cccc(C(F)(F)F)n4)ccc3n2)CC1)C1CCN(c2cccc3c2n(C)c(=O)n3C2CCC(=O)NC2=O)CC1F (stereo partly drawn) [I-555] | > 200 nM | 10 to 100 nM

Continued, values first:

Row | DC50 [1] | DC50 [2] | Compound
9 | > 200 nM | > 200 nM | CN(C[C@H]1CC[C@H](n2cc(NC(=O)c3cnn4ccc(N5CCSCC5)nc34)c(C(F)F)n2)CC1)C1CCN(c2cccc3c2n(C)c(=O)n3C2CCC(=O)NC2=O)CC1(F)F (stereo partly drawn) [I-541]
10 | > 200 nM | > 200 nM | CN(C[C@H]1CC[C@H](n2cc(NC(=O)c3cnn4ccc(N5CCS(=O)(=O)CC5)nc34)c(C(F)F)n2)CC1)C1CCN(c2cccc3c2n(C)c(=O)n3C2CCC(=O)NC2=O)CC1(F)F (stereo partly drawn) [I-542]
11 | > 200 nM | > 200 nM | CN(C[C@H]1CC[C@H](n2cc(NC(=O)c3cnn4ccc(N5CCCCCC5)nc34)c(C(F)F)n2)CC1)C1CCN(c2cccc3c2n(C)c(=O)n3C2CCC(=O)NC2=O)CC1(F)F (stereo partly drawn) [I-543]
12 | > 200 nM | 10 to 100 nM | CN(C[C@H]1CC[C@H](n2cc(NC(=O)c3cnn4ccc(N5CCCOCC5)nc34)c(C(F)F)n2)CC1)C1CCN(c2cccc3c2n(C)c(=O)n3C2CCC(=O)NC2=O)CC1(F)F (stereo partly drawn) [I-544]
13 | > 200 nM | < 10 nM | COc1cc2nn([C@H]3CC[C@H](CN4CCC(c5cccc6c5n(C)c(=O)n6C5CCC(=O)NC5=O)C(F)C4)CC3)cc2cc1NC(=O)c1cccc(C(F)(F)F)n1 (stereo partly drawn) [I-547]
14 | > 200 nM | < 10 nM | Cn1c(=O)n(C2CCC(=O)NC2=O)c2cccc(C3CCN(C[C@H]4CC[C@H](n5cc6cc(NC(=O)c7cccc(C(F)(F)F)n7)c(C#N)cc6n5)CC4)CC3F)c21 (stereo partly drawn) [I-548]
15 | > 200 nM | < 10 nM | Cn1c(=O)n(C2CCC(=O)NC2=O)c2cccc(C3CCN(C[C@H]4CC[C@H](n5cc6cc(NC(=O)c7cccc(C(F)(F)F)n7)ncc6n5)CC4)CC3F)c21 (stereo partly drawn) [I-549]
16 | > 200 nM | > 200 nM | COc1cc2nn([C@H]3CC[C@H](CN(C)C4CCN(c5cccc6c5n(C)c(=O)n6C5CCC(=O)NC5=O)CC4F)CC3)cc2cc1NC(=O)c1cccc(C(F)(F)F)n1 (stereo partly drawn) [I-556]
17 | > 200 nM | > 200 nM | CN(C[C@H]1CC[C@H](n2cc3cc(NC(=O)c4cccc(C(F)(F)F)n4)c(C(F)F)cc3n2)CC1)C1CCN(c2cccc3c2n(C)c(=O)n3C2CCC(=O)NC2=O)CC1F (stereo partly drawn) [I-557]
18 | > 200 nM | > 200 nM | CN(C[C@H]1CC[C@H](n2cc3cc(NC(=O)c4cccc(C(F)(F)F)n4)c(C#N)cc3n2)CC1)C1CCN(c2cccc3c2n(C)c(=O)n3C2CCC(=O)NC2=O)CC1F (stereo partly drawn) [I-558]
